Assay results as given in patent US7282496B2, “Allenic aryl sulfonamide hydroxamic acids as matrix metalloproteinase and TACE inhibitors” (Wyeth Holdings Corporation, priority 2001, dated 2007).

Columns and labels:
Format in all cases: biochemical
[1] = biological target: T1, MMP-1 (Homo sapiens, UniProt P03956); assay: MMP-1 inhibition, thiopeptide or fluorescent peptide substrate test procedure; settings: for IC50: in vitro enzyme inhibition
T1 sequence (P03956 100-469): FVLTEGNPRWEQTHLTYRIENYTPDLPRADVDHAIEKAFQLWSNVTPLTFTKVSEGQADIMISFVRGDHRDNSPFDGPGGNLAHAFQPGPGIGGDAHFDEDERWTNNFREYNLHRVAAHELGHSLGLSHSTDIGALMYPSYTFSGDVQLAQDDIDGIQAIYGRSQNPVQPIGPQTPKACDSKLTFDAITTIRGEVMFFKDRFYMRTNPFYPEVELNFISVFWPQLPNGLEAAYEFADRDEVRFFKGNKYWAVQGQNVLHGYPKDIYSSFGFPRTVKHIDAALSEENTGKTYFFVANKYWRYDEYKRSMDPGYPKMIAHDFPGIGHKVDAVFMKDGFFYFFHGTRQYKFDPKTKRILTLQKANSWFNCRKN
Description: (§1) Test Procedures for Measuring MMP-1, MMP-9, and MMP-13 Inhibition
(§2) These standard pharmacological test procedures are based on the cleavage of a thiopeptide substrates such as Ac-Pro-Leu-Gly(2-mercapto-4-methyl-pentanoyl)-Leu-Gly-OEt by the matrix metalloproteinases MMP-1, MMP-13 (collagenases) or MMP-9 (gelatinase), which results in the release of a substrate product that reacts calorimetrically with DTNB (5,5′-dithiobis(2-nitro-benzoic acid)). The enzyme activity is measured by the rate of the color increase. The thiopeptide substrate is made up fresh as a 20 mM stock in 100% DMSO and the DTNB is dissolved in 100% DMSO as a 100 mM stock and stored in the dark at room temperature. Both the substrate and DTNB are diluted together to 1 mM with substrate buffer (50 mM HEPES pH 7.5, 5 mM CaCl2) before use. The stock of enzyme is diluted with buffer (50 mM HEPES, pH 7.5, 5 mM CaCl2, 0.02% Brij) to the desired final concentration. The buffer, enzyme, vehicle or inhibitor, and DTNB/substrate are added in this order to a 96 well plate (total reaction volume of 200 μl) and the increase in color is monitored spectrophotometrically for 5 minutes at 405 nm on a plate reader and the increase in color over time is plotted as a linear line.
(§3) Alternatively, a fluorescent peptide substrate is used. In this test procedure, the peptide substrate contains a fluorescent group and a quenching group. Upon cleavage of the substrate by an MMP, the fluorescence that is generated is quantitated on the fluorescence plate reader. The assay is run in HCBC assay buffer (50 mM HEPES, pH 7.0, 5 mM Ca^+2, 0.02% Brij, 0.5% Cysteine), with human recombinant MMP-1, MMP-9, or MMP-13. The substrate is dissolved in methanol and stored frozen in 1 mM aliquots. For the assay, substrate and enzymes are diluted in HCBC buffer to the desired concentrations. Compounds are added to the 96 well plate containing enzyme and the reaction is started by the addition of substrate. The reaction is read (excitation 340 nm, emission 444 nm) for 10 min. and the increase in fluorescence over time is plotted as a linear line.
(§4) For either the thiopeptide or fluorescent peptide test procedures, the slope of the line is calculated and represents the reaction rate. The linearity of the reaction rate is confirmed (r^2>0.85). The mean (x±sem) of the control rate is calculated and compared for statistical significance (p<0.05) with drug-treated rates using Dunnett's multiple comparison test. Dose-response relationships can be generated using multiple doses of drug and IC50 values with 95% Cl are estimated using linear regression.

[2] = biological target: MMP-13 (Homo sapiens, UniProt P45452); assay: MMP-13 inhibition, thiopeptide or fluorescent peptide substrate test procedure; settings: in vitro enzyme inhibition
Description: as §1, §2, §3, §4

[3] = biological target: TNF-α converting enzyme (TACE) (Homo sapiens, UniProt P78536); assay: TACE inhibition, fluorescent peptidyl substrate test procedure; settings: in vitro enzyme inhibition
Description: Test Procedure for Measuring TACE Inhibition
Using 96-well black microtiter plates, each well receives a solution composed of 10 μL TACE (final concentration 1 μg/mL), 70 μL Tris buffer, pH 7.4 containing 10% glycerol (final concentration 10 mM), and 10 μL of test compound solution in DMSO (final concentration 1 μM, DMSO concentration <1%) and incubated for 10 minutes at room temperature. The reaction is initiated by addition of a fluorescent peptidyl substrate (final concentration 100 μM) to each well and then shaking on a shaker for 5 sec.
The reaction is read (excitation 340 nm, emission 420 nm) for 10 min. and the increase in fluorescence over time is plotted as a linear line. The slope of the line is calculated and represents the reaction rate.
The mean (x±sem) of the control rate is calculated and compared for statistical significance (p<0.05) with drug-treated rates using Dunnett's multiple comparison test.

[4] = biological target: MMP-9 (Homo sapiens, UniProt P14780); assay: MMP-9 inhibition, thiopeptide or fluorescent peptide substrate test procedure; settings: in vitro enzyme inhibition
Description: as §1, §2, §3, §4

TNF-α converting enzyme (TACE), sequence (P78536 215-824, species assumed): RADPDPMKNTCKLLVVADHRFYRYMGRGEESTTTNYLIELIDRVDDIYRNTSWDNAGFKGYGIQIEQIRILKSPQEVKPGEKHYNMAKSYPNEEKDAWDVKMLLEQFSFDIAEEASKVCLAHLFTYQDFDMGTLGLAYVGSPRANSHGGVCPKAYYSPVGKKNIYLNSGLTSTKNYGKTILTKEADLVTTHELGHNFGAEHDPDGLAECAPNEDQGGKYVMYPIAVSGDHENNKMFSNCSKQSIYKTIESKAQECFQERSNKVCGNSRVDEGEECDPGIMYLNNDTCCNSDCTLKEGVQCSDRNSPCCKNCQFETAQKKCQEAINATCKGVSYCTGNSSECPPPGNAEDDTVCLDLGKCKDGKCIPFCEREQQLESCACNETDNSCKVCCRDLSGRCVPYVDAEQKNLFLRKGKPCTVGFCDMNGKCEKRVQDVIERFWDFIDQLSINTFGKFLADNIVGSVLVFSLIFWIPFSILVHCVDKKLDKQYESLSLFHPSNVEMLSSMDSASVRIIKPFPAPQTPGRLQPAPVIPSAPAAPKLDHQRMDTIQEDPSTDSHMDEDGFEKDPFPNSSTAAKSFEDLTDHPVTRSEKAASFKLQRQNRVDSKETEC
MMP-9, sequence (P14780 94-707): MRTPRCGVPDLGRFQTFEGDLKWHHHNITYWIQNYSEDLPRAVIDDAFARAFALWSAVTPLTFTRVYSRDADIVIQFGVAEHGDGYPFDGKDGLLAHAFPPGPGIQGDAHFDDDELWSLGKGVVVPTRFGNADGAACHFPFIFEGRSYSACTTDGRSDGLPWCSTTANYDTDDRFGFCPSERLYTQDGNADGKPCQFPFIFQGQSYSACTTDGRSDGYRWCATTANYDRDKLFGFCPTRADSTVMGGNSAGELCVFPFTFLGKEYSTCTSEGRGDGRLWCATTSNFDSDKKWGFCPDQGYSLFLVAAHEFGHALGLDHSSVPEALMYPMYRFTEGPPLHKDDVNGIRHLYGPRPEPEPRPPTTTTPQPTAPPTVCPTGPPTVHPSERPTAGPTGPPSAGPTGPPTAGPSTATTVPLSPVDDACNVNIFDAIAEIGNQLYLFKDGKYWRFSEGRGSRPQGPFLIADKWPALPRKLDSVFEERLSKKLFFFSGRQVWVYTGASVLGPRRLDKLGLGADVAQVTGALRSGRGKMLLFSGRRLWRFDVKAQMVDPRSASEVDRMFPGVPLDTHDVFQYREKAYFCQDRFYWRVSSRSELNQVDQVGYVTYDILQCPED

SMILES | IC50 [1] [nM] | IC50 [2] [nM] | IC50 [3] [nM] | IC50 [4] [nM] | inhibition at 1 µM ([1]; 1 μM, read-out: MMP-1 % (inhibition) at single concentration) [%]
C=C=CCOc1ccc(S(=O)(=O)N(C)C(C(=O)NO)C(C)C)cc1 (centres unmarked) [Example 16, 2-[{[4-(2,3-Butadienyloxy)phenyl]sulfonyl}(methyl)amino]-N-hydroxy-3-methylbutanamide] | – | 3 | 36 | – | –
CC=C=CCOc1ccc(S(=O)(=O)N2Cc3ccccc3N(C(=O)c3ccccc3)CC2C(=O)NO)cc1 (centres unmarked) [Example 47, 1-Benzoyl-N-hydroxy-4-{[4-(2,3-pentadienyloxy)phenyl]sulfonyl}-2,3,4,5-tetrahydro-1H-1,4-benzodiazepine-3-carboxamide] | – | 5 | 1400 | – | 32
C=C=CCOc1ccc(S(=O)(=O)N2Cc3ccccc3N(C(C)=O)CC2C(=O)NO)cc1 (centres unmarked) [Example 45, 1-Acetyl-4-{[4-(2,3-butadienyloxy)phenyl]sulfonyl}-N-hydroxy-2,3,4,5-tetrahydro-1H-1,4-benzodiazepine-3-carboxamide] | 2350 | 7 | 71 | 9 | –
CC=C=CCOc1ccc(S(=O)(=O)N(C)C(C(=O)NO)C(C)C)cc1 (centres unmarked) [Example 22, N-Hydroxy-3-methyl-2-(methyl{[4-(2,3-pentadienyloxy)phenyl]sulfonyl}amino)butanamide] | 877 | 6 | 48 | 4 | –

The remaining molecules from weak to strong by IC50 [2], led by results:

IC50 [1] [nM] | IC50 [2] [nM] | IC50 [3] [nM] | IC50 [4] [nM] | inhibition at 1 µM ([1]; 1 μM, read-out: MMP-1 % (inhibition) at single concentration) [%] | SMILES
8810 | 25 | 62 | 21 | – | CC=C=CCOc1ccc(S(=O)(=O)NC(C(=O)NO)C(C)C)cc1 (centres unmarked) [Example 19, N-Hydroxy-3-methyl-2-({[4-(2,3-pentadienyloxy)phenyl]sulfonyl}amino)butanamide]
2670 | 21 | 51 | 36 | – | C=C=CCOc1ccc(S(=O)(=O)NC(C(=O)NO)C(C)C)cc1 (centres unmarked) [Example 13, 2-({[4-(2,3-Butadienyloxy)phenyl]sulfonyl}amino)-N-hydroxy-3-methylbutanamide]
50 | 4 | 116 | – | – | C=C=CCOc1ccc(S(=O)(=O)N2CCSC(C)(C)[C@@H]2C(=O)NO)cc1 [Example 26, (3S)-4-{[4-(2,3-Butadienyloxy)phenyl]sulfonyl}-N-hydroxy-2,2-dimethyl-3-thiomorpholinecarboxamide]
675 | 4 | – | – | – | C=C=CCOc1ccc(S(=O)(=O)N2Cc3ccccc3N(C(=O)c3ccccc3)CC2C(=O)NO)cc1 (centres unmarked) [Example 46, 1-Benzoyl-4-(4-buta-2,3-dienyloxy-benzenesulfonyl)-2,3,4,5-tetrahydro-1H-benzo[e][1,4]diazepine-3-carboxylic acid hydroxyamide]
